According to PubChem BioAssay AID1963856 (Molecular Pharmacology Branch, DTP, NCI, 2024):

System: LG0567-F671-PDC KRAS tumor spheroid viability
Assay: Anticancer human tumor LG0567-F671-PDC patient-derived lung adenocarcinoma cell line growth inhibition [KRAS2]
Conditions: spheroids with HUVEC and MSC; for IC50: curve of first compound; for viability, T/C: stronger effect = lower value
In short: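 KRAS-mutant tumor cells were grown as spheroids with HUVEC endothelial cells and human MSCs as stroma. Targeted agents were tested alone and with KRAS pathway inhibitors. Doses started at or near clinical Cmax, or 10 microM, descending half-log.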

[1] = second compound 0.1 µM, first compound 0.000316 µM
[2] = second compound 0.1 µM, first compound 0.001 µM
[3] = second compound 0.1 µM, first compound 0.00316 µM
[4] = second compound 0.1 µM, first compound 0.01 µM
[5] = second compound 0.1 µM, first compound 0.0316 µM
[6] = second compound 0.316 µM, first compound 0.000316 µM
[7] = second compound 0.316 µM, first compound 0.001 µM
[8] = second compound 0.316 µM, first compound 0.00316 µM
[9] = second compound 0.316 µM, first compound 0.01 µM
[10] = second compound 0.316 µM, first compound 0.0316 µM
[11] = second compound 1 µM, first compound 0.000316 µM
[12] = second compound 1 µM, first compound 0.001 µM
[13] = second compound 1 µM, first compound 0.00316 µM
[14] = second compound 1 µM, first compound 0.01 µM
[15] = second compound 1 µM, first compound 0.0316 µM
[16] = second compound 3.16 µM, first compound 0.000316 µM
[17] = second compound 3.16 µM, first compound 0.001 µM
[18] = second compound 3.16 µM, first compound 0.00316 µM
[19] = second compound 3.16 µM, first compound 0.01 µM
[20] = second compound 3.16 µM, first compound 0.0316 µM
[21] = second compound 10 µM, first compound 0.000316 µM
[22] = second compound 10 µM, first compound 0.001 µM
[23] = second compound 10 µM, first compound 0.00316 µM
[24] = second compound 10 µM, first compound 0.01 µM
[25] = second compound 10 µM, first compound 0.0316 µM
[26] = second compound 0.1 µM, first compound 0.1 µM
[27] = second compound 0.316 µM, first compound 0.1 µM
[28] = second compound 1 µM, first compound 0.1 µM
[29] = second compound 3.16 µM, first compound 0.1 µM
[30] = second compound 10 µM, first compound 0.1 µM
[31] = second compound 0.1 µM, first compound 0.316 µM
[32] = second compound 0.1 µM, first compound 1 µM
[33] = second compound 0.1 µM, first compound 3.16 µM
[34] = second compound 0.1 µM, first compound 10 µM
[35] = second compound 0.316 µM, first compound 0.316 µM
[36] = second compound 0.316 µM, first compound 1 µM
[37] = second compound 0.316 µM, first compound 3.16 µM
[38] = second compound 0.316 µM, first compound 10 µM
[39] = second compound 1 µM, first compound 0.316 µM
[40] = second compound 1 µM, first compound 1 µM
[41] = second compound 1 µM, first compound 3.16 µM
[42] = second compound 1 µM, first compound 10 µM
[43] = second compound 3.16 µM, first compound 0.316 µM
[44] = second compound 3.16 µM, first compound 1 µM
[45] = second compound 3.16 µM, first compound 3.16 µM
[46] = second compound 3.16 µM, first compound 10 µM
[47] = second compound 10 µM, first compound 0.316 µM
[48] = second compound 10 µM, first compound 1 µM
[49] = second compound 10 µM, first compound 3.16 µM
[50] = second compound 10 µM, first compound 10 µM
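Further: drug exposure lasted seven days after spheroids formed for three days.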
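Wherever viability, T/C is given: 100% = DMSO vehicle control viability.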

SMILES: CC(=O)Nc1cccc(-n2c(=O)n(C3CC3)c(=O)c3c(Nc4ccc(I)cc4F)n(C)c(=O)c(C)c32)c1 + COc1cc2nc(C)nc(NC(C)c3cc(N)cc(C(F)(F)F)c3)c2cc1OC1CCOC1
- IC50 (second compound 0.1 µM): 1 nM
- IC50 (second compound 0.316 µM): 0.299 nM
- IC50 (second compound 1 µM): < 0.1 nM
- IC50 (second compound 3.16 µM): < 0.1 nM
- IC50 (second compound 10 µM): < 0.1 nM
- viability, T/C (second compound 0.1 µM, first compound 0.0001 µM): 69.8%
- viability, T/C [1]: 52.6%
- viability, T/C [2]: 53%
- viability, T/C [3]: 39.9%
- viability, T/C [4]: 25.9%
- viability, T/C [5]: 8.34%
- viability, T/C (second compound 0.316 µM, first compound 0.0001 µM): 60.9%
- viability, T/C [6]: 48.7%
- viability, T/C [7]: 36.3%
- viability, T/C [8]: 33.2%
- viability, T/C [9]: 22.7%
- viability, T/C [10]: 11.8%
- viability, T/C (second compound 1 µM, first compound 0.0001 µM): 45.4%
- viability, T/C [11]: 43%
- viability, T/C [12]: 39.7%
- viability, T/C [13]: 31.2%
- viability, T/C [14]: 26.8%
- viability, T/C [15]: 7.58%
- viability, T/C (second compound 3.16 µM, first compound 0.0001 µM): 48.6%
- viability, T/C [16]: 43.7%
- viability, T/C [17]: 34%
- viability, T/C [18]: 19.2%
- viability, T/C [19]: 17.1%
- viability, T/C [20]: 6.02%
- viability, T/C (second compound 10 µM, first compound 0.0001 µM): 41.3%
- viability, T/C [21]: 36.6%
- viability, T/C [22]: 27.2%
- viability, T/C [23]: 13.4%
- viability, T/C [24]: 5.95%
- viability, T/C [25]: 1.33%

SMILES: CC(C)n1nc(-c2ccc3oc(N)nc3c2)c2c(N)ncnc21 + COc1cc2nc(C)nc(NC(C)c3cc(N)cc(C(F)(F)F)c3)c2cc1OC1CCOC1
- IC50 (second compound 0.1 µM): 56 nM
- IC50 (second compound 0.316 µM): 15.7 nM
- IC50 (second compound 1 µM): 2.92 nM
- IC50 (second compound 3.16 µM): 0.992 nM
- IC50 (second compound 10 µM): < 0.316 nM
- viability, T/C [1]: 76.4%
- viability, T/C [2]: 73.5%
- viability, T/C [3]: 60.4%
- viability, T/C [4]: 60.6%
- viability, T/C [5]: 51.8%
- viability, T/C [26]: 47.5%
- viability, T/C [6]: 65.2%
- viability, T/C [7]: 73.6%
- viability, T/C [8]: 57.7%
- viability, T/C [9]: 47.5%
- viability, T/C [10]: 49.8%
- viability, T/C [27]: 34.7%
- viability, T/C [11]: 70.1%
- viability, T/C [12]: 59.1%
- viability, T/C [13]: 45.8%
- viability, T/C [14]: 45.2%
- viability, T/C [15]: 28.4%
- viability, T/C [28]: 23.5%
- viability, T/C [16]: 59.9%
- viability, T/C [17]: 49.9%
- viability, T/C [18]: 38.4%
- viability, T/C [19]: 32%
- viability, T/C [20]: 20.5%
- viability, T/C [29]: 10.2%
- viability, T/C [21]: 37.7%
- viability, T/C [22]: 35.2%
- viability, T/C [23]: 24.8%
- viability, T/C [24]: 16.2%
- viability, T/C [25]: 11.5%
- viability, T/C [30]: 9.84%

SMILES: COC(=O)c1ccc2c(C(=Nc3ccc(N(C)C(=O)CN4CCN(C)CC4)cc3)c3ccccc3)c(O)[nH]c2c1 + COc1cc2nc(C)nc(NC(C)c3cc(N)cc(C(F)(F)F)c3)c2cc1OC1CCOC1
- IC50 (second compound 0.1 µM): > 10000 nM
- IC50 (second compound 0.316 µM): > 10000 nM
- IC50 (second compound 1 µM): > 10000 nM
- IC50 (second compound 3.16 µM): 4080 nM
- IC50 (second compound 10 µM): 1590 nM
- viability, T/C [5]: 112%
- viability, T/C [26]: 76.2%
- viability, T/C [31]: 65.9%
- viability, T/C [32]: 85.8%
- viability, T/C [33]: 83.8%
- viability, T/C [34]: 69.5%
- viability, T/C [10]: 60.2%
- viability, T/C [27]: 51.6%
- viability, T/C [35]: 58.8%
- viability, T/C [36]: 71.2%
- viability, T/C [37]: 61.7%
- viability, T/C [38]: 64.1%
- viability, T/C [15]: 72.3%
- viability, T/C [28]: 66.3%
- viability, T/C [39]: 61.5%
- viability, T/C [40]: 71.1%
- viability, T/C [41]: 66.4%
- viability, T/C [42]: 61.4%
- viability, T/C [20]: 73.8%
- viability, T/C [29]: 75.2%
- viability, T/C [43]: 66.7%
- viability, T/C [44]: 71.8%
- viability, T/C [45]: 64.2%
- viability, T/C [46]: 0.24%
- viability, T/C [25]: 78.7%
- viability, T/C [30]: 81.1%
- viability, T/C [47]: 82.3%
- viability, T/C [48]: 79%
- viability, T/C [49]: 6.56%
- viability, T/C [50]: 1.03%

SMILES: COc1cc(Nc2ncc3c(n2)-c2ccc(Cl)cc2C(c2c(F)cccc2OC)=NC3)ccc1C(=O)O + COc1cc2nc(C)nc(NC(C)c3cc(N)cc(C(F)(F)F)c3)c2cc1OC1CCOC1
- IC50 (second compound 0.1 µM): 2450 nM
- IC50 (second compound 0.316 µM): < 31.6 nM
- IC50 (second compound 1 µM): 169 nM
- IC50 (second compound 3.16 µM): < 31.6 nM
- IC50 (second compound 10 µM): < 31.6 nM
- viability, T/C [5]: 64.3%
- viability, T/C [26]: 59.9%
- viability, T/C [31]: 60.9%
- viability, T/C [32]: 55.1%
- viability, T/C [33]: 48.9%
- viability, T/C [34]: 36%
- viability, T/C [10]: 46.6%
- viability, T/C [27]: 50.2%
- viability, T/C [35]: 43.3%
- viability, T/C [36]: 47.1%
- viability, T/C [37]: 36%
- viability, T/C [38]: 28.2%
- viability, T/C [15]: 48.3%
- viability, T/C [28]: 53.7%
- viability, T/C [39]: 49.5%
- viability, T/C [40]: 44.5%
- viability, T/C [41]: 37.9%
- viability, T/C [42]: 28.8%
- viability, T/C [20]: 40%
- viability, T/C [29]: 44.4%
- viability, T/C [43]: 46.1%
- viability, T/C [44]: 36.9%
- viability, T/C [45]: 32.7%
- viability, T/C [46]: 23.6%
- viability, T/C [25]: 40.2%
- viability, T/C [30]: 37.8%
- viability, T/C [47]: 37.7%
- viability, T/C [48]: 33.1%
- viability, T/C [49]: 27.6%
- viability, T/C [50]: 18.9%

SMILES: COc1cc2nccc(Oc3ccc(NC(=O)C4(C(=O)Nc5ccc(F)cc5)CC4)cc3)c2cc1OC + COc1cc2nc(C)nc(NC(C)c3cc(N)cc(C(F)(F)F)c3)c2cc1OC1CCOC1
- IC50 (second compound 0.1 µM): > 10000 nM
- IC50 (second compound 0.316 µM): < 31.6 nM
- IC50 (second compound 1 µM): < 31.6 nM
- IC50 (second compound 3.16 µM): 204 nM
- IC50 (second compound 10 µM): 175 nM
- viability, T/C [5]: 78.6%
- viability, T/C [26]: 71.5%
- viability, T/C [31]: 56.5%
- viability, T/C [32]: 32.8%
- viability, T/C [33]: 101%
- viability, T/C [34]: 95.6%
- viability, T/C [10]: 61.5%
- viability, T/C [27]: 58.6%
- viability, T/C [35]: 45.4%
- viability, T/C [36]: 25.6%
- viability, T/C [37]: 87.3%
- viability, T/C [38]: 74%
- viability, T/C [15]: 43.8%
- viability, T/C [28]: 53%
- viability, T/C [39]: 42.7%
- viability, T/C [40]: 20.9%
- viability, T/C [41]: 79.8%
- viability, T/C [42]: 53.3%
- viability, T/C [20]: 63.7%
- viability, T/C [29]: 62%
- viability, T/C [43]: 42.1%
- viability, T/C [44]: 24.8%
- viability, T/C [45]: 9.35%
- viability, T/C [46]: 72.6%
- viability, T/C [25]: 71.7%
- viability, T/C [30]: 54.2%
- viability, T/C [47]: 49.2%
- viability, T/C [48]: 37.4%
- viability, T/C [49]: 1.24%
- viability, T/C [50]: 78.7%
